pIC50: −log10 of the molar value.
Molecular target: human NaV 1.8 (Homo sapiens, UniProt Q9Y5Y9)
Experiment: E-VIPR assay detecting and measuring NaV inhibition properties
Format: cell-based
Conditions: HEK cells expressing truncated human NaV 1.8; no human serum; read-out: IC50 in the E-VIPR Assay
Method in brief: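 HEK cells expressing truncated, fully active human NaV1.8, with KIR2.1 BacMam co-transduction, were loaded with CC2-DMPE/DiSBAC6(3) voltage-sensing dyes for 20 min at room temperature. Compounds were tested in 11-point 3-fold dilutions (300 nM top final), optionally with 25% human serum, under electrical stimulation with FRET read-out.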

human NaV 1.8, sequence (Q9Y5Y9 126-399 limits assumed): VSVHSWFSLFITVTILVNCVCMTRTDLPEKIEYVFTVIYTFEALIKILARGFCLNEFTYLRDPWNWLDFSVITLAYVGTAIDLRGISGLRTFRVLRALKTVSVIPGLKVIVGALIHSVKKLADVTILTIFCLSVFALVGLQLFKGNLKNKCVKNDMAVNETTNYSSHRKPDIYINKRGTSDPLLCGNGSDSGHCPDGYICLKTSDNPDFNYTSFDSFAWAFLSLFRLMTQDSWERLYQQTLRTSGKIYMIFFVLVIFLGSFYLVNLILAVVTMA
human NaV 1.8, sequence (Q9Y5Y9 660-890 limits assumed): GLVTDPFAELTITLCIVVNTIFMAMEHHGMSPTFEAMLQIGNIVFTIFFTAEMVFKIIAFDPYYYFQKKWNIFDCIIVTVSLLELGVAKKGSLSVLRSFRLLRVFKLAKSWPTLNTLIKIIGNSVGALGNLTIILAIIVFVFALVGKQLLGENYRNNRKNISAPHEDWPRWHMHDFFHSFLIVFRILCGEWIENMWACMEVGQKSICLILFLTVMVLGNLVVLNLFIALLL
human NaV 1.8, sequence (Q9Y5Y9 1148-1722 limits assumed): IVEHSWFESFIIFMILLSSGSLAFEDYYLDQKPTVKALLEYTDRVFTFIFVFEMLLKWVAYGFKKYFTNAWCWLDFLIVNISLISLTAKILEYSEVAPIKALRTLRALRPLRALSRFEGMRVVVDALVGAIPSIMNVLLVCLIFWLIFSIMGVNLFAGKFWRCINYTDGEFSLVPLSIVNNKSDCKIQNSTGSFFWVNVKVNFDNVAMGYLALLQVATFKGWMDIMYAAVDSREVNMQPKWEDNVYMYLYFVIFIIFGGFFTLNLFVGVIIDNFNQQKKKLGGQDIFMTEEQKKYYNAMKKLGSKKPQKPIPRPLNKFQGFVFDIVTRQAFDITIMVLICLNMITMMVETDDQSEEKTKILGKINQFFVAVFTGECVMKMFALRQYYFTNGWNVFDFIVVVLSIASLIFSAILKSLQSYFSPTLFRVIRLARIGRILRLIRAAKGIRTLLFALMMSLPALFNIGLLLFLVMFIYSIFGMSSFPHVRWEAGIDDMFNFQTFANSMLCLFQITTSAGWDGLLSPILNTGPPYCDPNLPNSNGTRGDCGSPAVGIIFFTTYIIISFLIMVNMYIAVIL

`COc1c([C@H]2[C@H](C(=O)Nc3ccnc(N4C[C@@H](C)N(C)CC4=O)c3)O[C@@](C)(C(F)(F)F)[C@H]2C)ccc(F)c1F` [Compound 470, (2R,3S,4S,5R)-3-(3,4-difluoro-2-methoxyphenyl)-N-(2-((R)-4,5-dimethyl-2-oxopiperazin-1-yl)pyridin-4-yl)-4,5-dimethyl-5-(trifluoromethyl)tetrahydrofuran-2-carboxamide] and `COc1c([C@H]2[C@H](C(=O)Nc3ccnc(N4C[C@H](C)N(C)CC4=O)c3)O[C@@](C)(C(F)(F)F)[C@H]2C)ccc(F)c1F` [Compound 474, (2R,3S,4S,5R)-3-(3,4-difluoro-2-methoxyphenyl)-N-(2-((S)-4,5-dimethyl-2-oxopiperazin-1-yl)pyridin-4-yl)-4,5-dimethyl-5-(trifluoromethyl)tetrahydrofuran-2-carboxamide] cannot be ordered by pIC50: over 8.00 for the first, over 8.00 for the second.

`COc1c([C@H]2[C@H](C(=O)Nc3ccnc(N4CC[C@@H](O)C4=O)c3)O[C@@](C)(C(F)(F)F)[C@H]2C)ccc(F)c1F` [Compound 471, (2R,3S,4S,5R)-3-(3,4-difluoro-2-methoxyphenyl)-N-(2-((R)-3-hydroxy-2-oxopyrrolidin-1-yl)pyridin-4-yl)-4,5-dimethyl-5-(trifluoromethyl)tetrahydrofuran-2-carboxamide] and `COc1c([C@H]2[C@H](C(=O)Nc3ccnc(N4CC[C@H](O)C4=O)c3)O[C@@](C)(C(F)(F)F)[C@H]2C)ccc(F)c1F` [Compound 473, (2R,3S,4S,5R)-3-(3,4-difluoro-2-methoxyphenyl)-N-(2-((S)-3-hydroxy-2-oxopyrrolidin-1-yl)pyridin-4-yl)-4,5-dimethyl-5-(trifluoromethyl)tetrahydrofuran-2-carboxamide] fall in the same range of pIC50: 7.00 to 8.00 for the first, 7.00 to 8.00 for the second.

`COc1c([C@H]2[C@H](C(=O)Nc3ccnc(NC(=O)CN(C)C)c3)O[C@@](C)(C(F)(F)F)[C@H]2C)ccc(F)c1F` [Compound 472, (2R,3S,4S,5R)-3-(3,4-difluoro-2-methoxyphenyl)-N-(2-(2-(dimethylamino)acetamido)pyridin-4-yl)-4,5-dimethyl-5-(trifluoromethyl)tetrahydrofuran-2-carboxamide] and `COc1c([C@H]2[C@H](C(=O)Nc3ccnc(N4CCN(C)[C@H](C)C4=O)c3)O[C@@](C)(C(F)(F)F)[C@H]2C)ccc(F)c1F` [Compound 475, (2R,3S,4S,5R)-3-(3,4-difluoro-2-methoxyphenyl)-N-(2-((R)-3,4-dimethyl-2-oxopiperazin-1-yl)pyridin-4-yl)-4,5-dimethyl-5-(trifluoromethyl)tetrahydrofuran-2-carboxamide] fall in the same range of pIC50: 7.00 to 8.00 for the first, 7.00 to 8.00 for the second.

`COc1c([C@H]2[C@H](C(=O)Nc3ccnc(N4CCN(C)[C@@H](C)C4=O)c3)O[C@@](C)(C(F)(F)F)[C@H]2C)ccc(F)c1F` [Compound 476, (2R,3S,4S,5R)-3-(3,4-difluoro-2-methoxyphenyl)-N-(2-((S)-3,4-dimethyl-2-oxopiperazin-1-yl)pyridin-4-yl)-4,5-dimethyl-5-(trifluoromethyl)tetrahydrofuran-2-carboxamide] and `COc1c([C@H]2[C@H](C(=O)Nc3ccnc(N4C[C@H](C)NCC4=O)c3)O[C@@](C)(C(F)(F)F)[C@H]2C)ccc(F)c1F` [Compound 478, (2R,3S,4S,5R)-3-(3,4-difluoro-2-methoxyphenyl)-4,5-dimethyl-N-(2-((S)-5-methyl-2-oxopiperazin-1-yl)pyridin-4-yl)-5-(trifluoromethyl)tetrahydrofuran-2-carboxamide] fall in the same range of pIC50: 7.00 to 8.00 for the first, 7.00 to 8.00 for the second.

`COc1c([C@H]2[C@H](C(=O)Nc3ccnc(N4C(=O)CNC[C@H]4C)c3)O[C@@](C)(C(F)(F)F)[C@H]2C)ccc(F)c1F` [Compound 477, (2R,3S,4S,5R)-3-(3,4-difluoro-2-methoxyphenyl)-4,5-dimethyl-N-(2-((R)-2-methyl-6-oxopiperazin-1-yl)pyridin-4-yl)-5-(trifluoromethyl)tetrahydrofuran-2-carboxamide] gave a pIC50 of 7.00 to 8.00.
